Laboratory results from patent US12336986B2, “Treatment and prevention of ocular neurodegenerative disorder” (The Jackson Laboratory, priority 2015, dated 2025).

Tests used:
[1] = test system: dorsal root ganglion; settings: U.S. Pat. No. 7,776,326; cited from earlier work
[2] = survey of 6000 patients on high doses; cited from earlier work
[3] = test system: sciatic nerve axons; settings: blocking NAMPT; cited from earlier work
[4] = test system: zebrafish; settings: two-photon-laser axotomy; cited from earlier work
[5] = test system: D2 mice; settings: topical administration; cited from earlier work
[6] = test system: ganglion cell layer cells (GCL cells); assay: Whole retina explant culture (axotomy culture model), DAPI nuclei; assay type: cell-based, mouse
Text: Mice were euthanized, eyes enucleated and placed immediately into ice-cold HBSS. Retinas were dissected from the eyes in HBSS on ice, flat-mounted with the ganglion cell layer up on a cell culture insert (Millipore), and submerged in tissue culture media containing Neurobasal-A, 1% penicillin-streptomycin (10000 U/mL), 1% glutamine (100×), 1% N-2 (100×) and 1% B-27 (50×) (all ThermoFisher Scientific).
For drug treated retinas tissue culture media was made as above and supplemented with one of the following compounds (all Sigma unless otherwise): β-NAD, NAM (PanReac AppliChem), β-NMN. Retinas were incubated in 6-well plates at 37° C. and 4% CO2 for 5 days before being fixed in 4% PFA and stained with DAPI. (For untreated “Day 0” controls, retinas were dissected and placed straight into 4% PFA.) Retinas were imaged on a Zeiss AxioObserver.

[7] = PQQ tolerability in mice; assay type: in vivo, mouse
[8] = axotomized retinas in culture, 5 days

O=C(O)c1cccnc1 [nicotinic acid]
axonal degeneration after axotomy [1]: did not work to diminish axonal degeneration
cases of jaundice reported [2]: 3

O=C(/C=C/c1cccnc1)NCCCCC1CCN(C(=O)c2ccccc2)CC1 [FK866]
axon degeneration following axonal injury [3]: potentially inhibits this axon degeneration
axon degeneration [4]: potently delayed axon degeneration

CC(C)OC(=O)CCC/C=C\C[C@@H]1[C@@H](CC[C@@H](O)CCc2ccccc2)[C@H](O)C[C@@H]1O [Latanoprost]
IOP [5]: lowers IOP
risk of developing neurodegeneration [5]: reduces the risk of developing neurodegeneration

CC(C)(C)NC[C@H](O)COc1nsnc1N1CCOCC1 [timolol]
IOP [5]: lowers IOP
risk of developing neurodegeneration [5]: reduces the risk of developing neurodegeneration

O=C(O)c1cc(C(=O)O)c2c(n1)C(=O)C(=O)c1cc(C(=O)O)[nH]c1-2 [PQQ, pyrroloquinoline quinone]
nuclear diameter shrinkage (DAPI-labeled nuclei) ([6]; axotomized D2 retinas in culture, 5 days post-axotomy, NAM 100 mM and 500 mM): prevents
ganglion cell layer cell death / cell density [6, 8]: prevents
protective effect in retina tissue culture [6, 8]: protective in retina tissue culture
tolerated dose [7]: ≥ 2,000 mg/kg/day

NC(=O)c1ccc[n+]([C@@H]2O[C@H](COP(=O)([O-])O)[C@@H](O)[C@H]2O)c1 [β-NMN, nicotinamide mononucleotide]
protective effect in retina tissue culture [6, 8]: significant protective effects

CC12CC3CC(C)(C1)CC(N)(C3)C2 [memantine]
IOP [5]: lowers IOP
risk of developing neurodegeneration [5]: reduces the risk of developing neurodegeneration
